Experiment [1] can be described thus: Inhibition of trypsin-like activity of 20S proteasome in rabbit erythrocytes using Boc-LRR-AMC as substrate preincubated for 15 mins measured after 45 mins by fluorescence assay. It counts as cell-based, Oryctolagus cuniculus.
Experiment [2] is described as follows: Inhibition of caspase-like activity of 20S proteasome in rabbit erythrocytes using Z-LLE-betaNA as substrate preincubated for 15 mins measured after 45 mins by fluorescence assay. It counts as cell-based, Oryctolagus cuniculus.
Experiment [3] is described as follows: Inhibition of chymotrypsin-like activity of 20S proteasome in rabbit erythrocytes using Suc-LLVY-AMC as substrate preincubated for 15 mins measured after 45 mins by fluorescence assay. Type of experiment: cell-based, Oryctolagus cuniculus.
Experiment [4] concerns the target T1, Calpain-1 catalytic subunit (Homo sapiens, UniProt P07384).
T1 sequence (P07384 whole entry): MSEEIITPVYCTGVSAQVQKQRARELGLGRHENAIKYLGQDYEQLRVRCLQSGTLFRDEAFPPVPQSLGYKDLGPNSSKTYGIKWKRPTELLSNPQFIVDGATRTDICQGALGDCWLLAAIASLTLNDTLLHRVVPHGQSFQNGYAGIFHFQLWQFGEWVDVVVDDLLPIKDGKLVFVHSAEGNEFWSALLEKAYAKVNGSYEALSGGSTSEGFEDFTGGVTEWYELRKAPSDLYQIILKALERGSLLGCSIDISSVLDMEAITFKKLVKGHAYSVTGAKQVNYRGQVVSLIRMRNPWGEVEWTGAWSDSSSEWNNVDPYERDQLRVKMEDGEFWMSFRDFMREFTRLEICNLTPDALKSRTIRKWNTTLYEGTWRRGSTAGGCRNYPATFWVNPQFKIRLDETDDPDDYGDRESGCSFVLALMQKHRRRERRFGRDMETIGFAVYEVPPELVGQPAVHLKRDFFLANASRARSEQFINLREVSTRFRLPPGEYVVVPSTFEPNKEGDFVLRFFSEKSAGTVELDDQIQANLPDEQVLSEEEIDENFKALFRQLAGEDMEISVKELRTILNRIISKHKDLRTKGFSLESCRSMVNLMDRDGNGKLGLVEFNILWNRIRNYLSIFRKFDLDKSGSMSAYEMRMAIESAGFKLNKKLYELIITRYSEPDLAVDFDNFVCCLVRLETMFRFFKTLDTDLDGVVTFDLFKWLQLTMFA
The experiment in a line: Inhibition of calpain 1 in human erythrocytes using Suc-LLVY-AMC as substrate by fluorescence assay. Type of experiment: cell-based.

Experiment [5] has as its target Cathepsin B (Homo sapiens) (UniProt P07858). The experiment in a line: Inhibition of cathepsin B in human hepatocytes using Z-RR-AMC as substrate by fluorescence assay. Type of experiment: cell-based. As to conditions: Hepatocyte.
Experiment [6] is filed under the species Oryctolagus cuniculus. The experiment in a line: Inhibition of chymotrypsin-like activity of 20S proteasome in rabbit erythrocytes using Suc-LLVY-AMC as substrate at 100 uM preincubated for 15 mins measured after 45 mins by fluorescence assay relative to control. It counts as cell-based.
The species entered for experiment [7] is Oryctolagus cuniculus. Briefly: Inhibition of caspase-like activity of 20S proteasome in rabbit erythrocytes using Z-LLE-betaNA as substrate at 100 uM preincubated for 15 mins measured after 45 mins by fluorescence assay relative to control.

Here are results for 33 molecules from ChEMBL document CHEMBL2375248, “C1 and N5 derivatives of cerpegin: synthesis of a new series based on structure-activity relationships to optimize their inhibitory effect on 20S proteasome” (Bioorg Med Chem Lett, 2013).

The term IC50 denotes the concentration needed to halve the response being measured. By inhibition is commonly meant how much of the control response was suppressed.

Structures are written as SMILES. Active and inactive are the calls of the source. The calls are words filed in the database; no cut-off is given here.

On to `CC1(Cc2ccccc2)OC(=O)c2c1ccn(CCc1ccc(Cl)cc1)c2=O` (racemic), for which the IC50 result in experiment [1] was “Not Active”; in experiment [2] (read-out: IC50) it was 7 µM; in experiment [3] (read-out: IC50), 22.5 µM; in experiment [4] it was 29.6 µM. The inhibition entry in experiment [5] was “inactive”.
Regarding `O=C1OC2(CCCCC2)c2ccn(CC(O)CO)c(=O)c21` (configuration not stated), the figures for the IC50 result in experiment [1], in experiment [2] (read-out: IC50) and in experiment [3] were “Not Active”, 8.1 µM and “Not Active”, respectively. In addition, the inhibition entry in experiment [5] is “inactive”.
Take `NC(=S)Nn1ccc2c(c1=O)C(=O)OC21CCCCC1`: the 50% inhibitory concentration (IC50) result in experiment [1] and in experiment [2] was “Not Active” each time. Besides, the inhibition result in experiment [5] was “inactive”. In the experiment listed under Oryctolagus cuniculus [6], the inhibition was found to be 23.8%.
As to `CCN(CC)CC(O)Cn1ccc2c(c1=O)C(=O)OC21CCCCC1` (configuration not stated), the IC50 entry was “Not Active” in experiment [1], 6.7 µM in experiment [2] (read-out: IC50) and “Not Active” in experiment [3]. For the same molecule, in experiment [5], the inhibition result was “inactive”.
As for `CC1(C)OC(=O)c2c1ccn(-c1ccc(S(=O)(=O)NC(=N)N)cc1)c2=O`, the IC50 result in experiment [1] was “Not Active”; in experiment [2] (read-out: IC50) it was 5.9 µM; in experiment [3], “Not Active”. Also, the inhibition result in experiment [5] is “inactive”.
In the case of `CC1(C)CC2(CCO1)OC(=O)c1c2ccn(CCCN2CCOCC2)c1=O` (configuration not stated), the half-inhibitory concentration (IC50) result is “Not Active” in experiment [1], 54.7 µM in experiment [2] (read-out: IC50) and “Not Active” in experiment [3]. The inhibition result in experiment [5] is “inactive”.
As to `CC(C)CC1(C)OC(=O)c2c1ccn(-c1ccc(S(N)(=O)=O)cc1)c2=O` (racemic), the IC50 entry is “Not Active” in experiment [1], 4.6 µM in experiment [2] (read-out: IC50) and “Not Active” in experiment [3]. The inhibition result in experiment [5] is “inactive”.
On to `CCN(CC)CC(O)Cn1ccc2c(c1=O)C(=O)OC2(C)c1ccccc1` (mixture of isomers), for which the results for the IC50 entry in experiment [1], in experiment [2] (read-out: IC50) and in experiment [3] were “Not Active”, 4.4 µM and “Not Active”, respectively. Further, the inhibition result in experiment [5] was “inactive”.
For the molecule `CC1(C)OC(=O)c2c1ccn(-c1ccc(S(=O)(=O)Nc3ccnn3-c3ccccc3)cc1)c2=O`, the 50% inhibitory concentration (IC50) entry in experiment [1] and in experiment [3] was “Not Active” throughout. Besides, in the experiment filed under Oryctolagus cuniculus [7], the inhibition amounted to 28%. The inhibition entry in experiment [5] is “inactive”.
Take `O=C1OC2(CCCCC2)c2ccn(CC(O)CN3CCOCC3)c(=O)c21` (configuration not stated): the IC50 result in experiment [1] and in experiment [3] was “Not Active” in each case. In the experiment filed under Oryctolagus cuniculus [7], the inhibition is 30.7%. Moreover, the inhibition entry in experiment [5] is “inactive”.
For the molecule `CC1(CCc2ccccc2)OC(=O)c2c1ccn(CCCN1CCOCC1)c2=O` (racemic), the values for the IC50 result in experiment [1], in experiment [2] (read-out: IC50) and in experiment [3] were “Not Active”, 19.6 µM and “Not Active”, respectively. Moreover, in experiment [5], the inhibition entry was “inactive”.
`CC1(C)OC(=O)c2c1ccn(-c1ccc(S(=O)(=O)Nc3ncccn3)cc1)c2=O`: the concentration for half-maximal inhibition (IC50) result in experiment [1] and in experiment [3] was “Not Active” throughout. The molecule also displayed an inhibition in the experiment filed under Oryctolagus cuniculus [7] of 51%. In addition, in experiment [5], the inhibition result was “inactive”.
`CC1(C)OC(=O)c2c1ccn(-c1ccc(S(=O)(=O)Nc3ccccn3)cc1)c2=O`: the IC50 entry in experiment [1] and in experiment [3] was “Not Active” throughout. This molecule also returned an inhibition in the experiment listed under Oryctolagus cuniculus [7] of 64%. In addition, in experiment [5], the inhibition result was “inactive”.
Regarding `CC1(C)OC(=O)c2c1ccn(-c1ccc(S(=O)(=O)Nc3nccs3)cc1)c2=O`, the 50% inhibitory concentration (IC50) entry in experiment [1] and in experiment [3] was “Not Active” in each case. The inhibition in the experiment listed under Oryctolagus cuniculus [7] was determined as 22%. The inhibition entry in experiment [5] was “inactive”.
As for `Cc1noc(NS(=O)(=O)c2ccc(-n3ccc4c(c3=O)C(=O)OC4(C)C)cc2)c1C`, the IC50 entry in experiment [1] and in experiment [3] was “Not Active” each time. This molecule returned an inhibition in the experiment filed under Oryctolagus cuniculus [7] of 51%. Besides, in experiment [5], the inhibition entry is “inactive”.
Consider `CC1(C)OC(=O)c2c1ccn(-c1ccc(S(=O)(=O)NC(=O)c3ccccc3)cc1)c2=O`, for which the values for the IC50 entry in experiment [1], in experiment [2] (read-out: IC50) and in experiment [3] were “Not Active”, 4.5 µM and “Not Active”, respectively. The inhibition entry in experiment [5] was “inactive”.
As for `Cn1ccc2c(c1=O)C(=O)OC2(C)c1ccccc1` (racemic), the half-maximal inhibitory concentration (IC50) result in experiment [1] was “Not Active”; in experiment [2] (read-out: IC50) it was 36 µM; in experiment [3], “Not Active”. In addition, the inhibition entry in experiment [5] was “inactive”.
With `O=C1OC2(CCCCC2)c2ccn(CCCN3CCOCC3)c(=O)c21`, the concentration for half-maximal inhibition (IC50) result was “Not Active” in experiment [1], 46.9 µM in experiment [2] (read-out: IC50) and “Not Active” in experiment [3]. Besides, in experiment [5], the inhibition entry is “inactive”.
As for `CCN(CC)CC(O)Cn1ccc2c(c1=O)C(=O)OC2(C)CCc1ccccc1` (mixture of isomers), the concentration for half-maximal inhibition (IC50) entry in experiment [1] was “Not Active”; in experiment [2] (read-out: IC50) it was 2.5 µM; in experiment [3], “Not Active”. Further, the inhibition result in experiment [5] is “inactive”.
Consider `CCN(CC)CC(O)Cn1ccc2c(c1=O)C(=O)OC21CCOC(C)(C)C1` (configuration not stated), for which the IC50 entry in experiment [1] was “Not Active”; in experiment [2] (read-out: IC50), 4.1 µM; in experiment [3], “Not Active”. Moreover, the inhibition entry in experiment [5] was “inactive”.
On to `CC1(C)OC(=O)c2c1ccn(-c1ccc(S(N)(=O)=O)cc1)c2=O`, for which the half-maximal inhibitory concentration (IC50) result in experiment [1] is “Not Active”; in experiment [2] (read-out: IC50), 6.1 µM; in experiment [3] it was “Not Active”. Further, the inhibition entry in experiment [5] is “inactive”.
Take `CC1(Cc2ccccc2)OC(=O)c2c1ccn(-c1ccc(S(N)(=O)=O)cc1)c2=O` (racemic): the half-inhibitory concentration (IC50) entry in experiment [1] was “Not Active”; in experiment [2] (read-out: IC50), 3.6 µM; in experiment [3], “Not Active”. Further, the inhibition result in experiment [5] was “inactive”.
Take `C[C@@]12OC(=O)[C@]1([C@@H](O)[C@@H]1C=CCCC1)NC(=O)[C@@H]2CCCl` [MARIZOMIB]: the values for the IC50 in experiment [1] (read-out: IC50), in experiment [2] (read-out: IC50) and in experiment [3] (read-out: IC50) were 21 nM, 0.46 µM and 0.0026 µM, respectively.
Turning to `CC(C)CC1(C)OC(=O)c2c1ccn(CCCN1CCOCC1)c2=O` (racemic), the half-inhibitory concentration (IC50) result in experiment [1] and in experiment [3] was “Not Active” each time. In addition, the inhibition in the experiment listed under Oryctolagus cuniculus [7] amounted to 31.8%. Besides, the inhibition entry in experiment [5] is “inactive”.
Regarding `CC1(CCc2ccccc2)OC(=O)c2c1ccn(-c1ccc(S(N)(=O)=O)cc1)c2=O` (racemic), the 50% inhibitory concentration (IC50) entry is “Not Active” in experiment [1], 2.8 µM in experiment [2] (read-out: IC50) and “Not Active” in experiment [3]. Further, the inhibition result in experiment [5] was “inactive”.
As for `O=C1OC2(CCCCC2)c2ccn(CC(O)c3ccccc3)c(=O)c21` (configuration not stated), the IC50 result was “Not Active” in experiment [1], 11.9 µM in experiment [2] (read-out: IC50) and “Not Active” in experiment [3]. The inhibition entry in experiment [5] was “inactive”.
As to `CC1(c2ccccc2)OC(=O)c2c1ccn(CCCN1CCOCC1)c2=O` (racemic), the IC50 result is “Not Active” in experiment [1], 56.4 µM in experiment [2] (read-out: IC50) and “Not Active” in experiment [3]. The inhibition result in experiment [5] was “inactive”.
Consider `CC(C)CC1(C)OC(=O)c2c1ccn(CCc1ccc(Cl)cc1)c2=O` (racemic), for which the IC50 result is “Not Active” in experiment [1], 12.7 µM in experiment [2] (read-out: IC50) and “Not Active” in experiment [3]. Further, in experiment [5], the inhibition entry was “inactive”.
For the molecule `CCC1(C)OC(=O)c2c1ccn(-c1ccc(S(N)(=O)=O)cc1)c2=O` (racemic), the IC50 result in experiment [1] was “Not Active”; in experiment [2] (read-out: IC50), 4.9 µM; in experiment [3] it was “Not Active”. Moreover, in experiment [5], the inhibition entry is “inactive”.
Take `Cc1cc(-n2ccc3c(c2=O)C(=O)OC32CCCCC2)n(-c2ccccc2)n1`: the IC50 result in experiment [1], in experiment [2] and in experiment [3] was “Not Active” in each case. Also, the inhibition entry in experiment [5] is “inactive”.
With `CC(=O)NS(=O)(=O)c1ccc(-n2ccc3c(c2=O)C(=O)OC3(C)C)cc1`, the IC50 result is “Not Active” in experiment [1], 5.7 µM in experiment [2] (read-out: IC50) and “Not Active” in experiment [3]. The inhibition entry in experiment [5] was “inactive”.
`CC(C)CC1(C)OC(=O)c2c1ccn(CC(O)c1ccccc1)c2=O` (configuration not stated): the IC50 result in experiment [1] was “Not Active”; in experiment [2] (read-out: IC50), 4.8 µM; in experiment [3], “Not Active”. Moreover, the inhibition result in experiment [5] is “inactive”.
For `NS(=O)(=O)c1ccc(-n2ccc3c(c2=O)C(=O)OC32CCCCC2)cc1`, the values for the half-inhibitory concentration (IC50) entry in experiment [1], in experiment [2] (read-out: IC50) and in experiment [3] were “Not Active”, 6.6 µM and “Not Active”, respectively. In experiment [5], the inhibition result was “inactive”.
